Measured values taken from US9889145B2, “Methods to treat infections” (priority 2013, dated 2018).
“Also recorded” adds a separate entry of the source.

Columns and labels:
arginase = experiment: Quantitative assay for urea in lungs of Bt-infected mice (indirect measurement of Arg activity); type: in vivo; conditions: 80 mg/kg Celecoxib vs mock-treated Bt-infected mice
IL-1α, IL-6 and KC = IL-1α, IL-6 and KC in the lungs of Bt-infected mice; type: in vivo; conditions: 80 mg/kg Celecoxib vs mock; 48 hours post-infection with Bt
Arg2 [1] = experiment: Arg2 in lung and liver of Bt-infected mice (Western blot, immunohistochemical staining); type: in vivo
B. thailandensis = system: B. thailandensis; set-up: species or system Burkholderia thailandensis; conditions: in vivo
PGE-2 [2] = system: PGE-2; set-up: species or system mice; conditions: mouse, in vivo
[3] = system: BALB/c mice infected with B. thailandensis; conditions: mouse, in vivo
PGE-2 [4] = type: cell-based, murine
[5] = system: Burkholderia pseudomallei strain 1026b; type: in vivo
B. pseudomallei [6] = type: in vivo, Burkholderia pseudomallei; conditions: n=2
[7] = system: Burkholderia thailandensis (Bt); type: cell-based
NO [8] = type: cell-based, mice
Arg2 [9] = type: cell-based, mice
[10] = daily maximum dose of 15 mg/kg in mice, cited from earlier work
B. pseudomallei [11] = type: cell-based, Burkholderia pseudomallei
iNOS [12] = type: cell-based
Arg2 [13] = system: Arg2; set-up: species or system mice; conditions: mouse, in vivo, 15 mg/kg
iNOS [14] = type: cell-based, mice; conditions: 4 hours
PGE-2 [15] = type: in vivo, mice; conditions: n=2
NO [16] = type: cell-based, mice; remark: listed apart in the source
CD4+ T-cells = experiment: IFN-γ and IL-2 production by stimulated CD4+ T-cells; type: cell-based, mice; conditions: low dose (100 pg/ml) or high dose (10,000 pg/ml) PGE-2; Day 6; vs stimulated

Cc1ccc(-c2cc(C(F)(F)F)nn2-c2ccc(S(N)(=O)=O)cc2)cc1 [Celecoxib, 4-[5-(4-methylphenyl)-3-(trifluoromethyl)pyrazol-1-yl]benzenesulfonamide]
urea levels in the lungs (arginase): lower | IL-1α in the lungs (IL-1α, IL-6 and KC): reduced | IL-6 in the lungs (IL-1α, IL-6 and KC): reduced | KC in the lungs (IL-1α, IL-6 and KC): reduced | number of Arg2 positively-stained cells in lungs (immunohistochemical staining) (Arg2 [1]; 80 mg/kg Celecoxib vs mock-treated Bt-infected mice): reduction in the number of Arg2 positively-stained cells | Arg2 in the lungs (Western blot) (Arg2 [1]; 80 mg/kg Celecoxib vs mock-treated mice, 48 hours after pulmonary Bt infection): reduction in Arg2 in the lungs | bacterial burden in liver (B. thailandensis): reduction in bacterial burdens | bacterial burden in lung (B. thailandensis): reduction in bacterial burdens | bacterial burden in spleen (B. thailandensis): reduction in bacterial burdens | PGE-2 in the lungs (ELISA) (PGE-2 [2]): PGE-2 reduction | lung inflammation (histological examination) [3]: reduced

CS(=O)(=O)Nc1ccc([N+](=O)[O-])cc1OC1CCCCC1 [NS398, N-[2-(cyclohexyloxy)-4-nitrophenyl]-methanesulfonamide]
PGE-2 levels in supernatants (PGE-2 [4]): reduced | bacteria recovered from the lungs at the study endpoint ([5]; in vivo): No bacteria were recovered | bacteria recovered from the lungs of the two animals euthanized on day 5 and day 7 (hind leg paralysis) ([5]; in vivo): No bacteria were recovered | colonization of spleen and liver ([5]; in vivo): 20-100 cfu | first signs of illness ([5]; in vivo): ≥ 5 | lung bacteria of the one exceptional animal at the study endpoint ([5]; in vivo): 104 cfu | weight loss throughout the study ([5]; in vivo): no evidence of weight loss | survival / recovery over 10 days ([5]; n=8): appeared to have recovered from the infection; also recorded: protection against lethal pulmonary melioidosis | growth of B. pseudomallei in lung tissue (CFU/mg) (B. pseudomallei [6]): suppresses the growth of B. pseudomallei in lung tissue | growth of B. pseudomallei in stomach tissue (CFU/mg) (B. pseudomallei [6]): suppresses the growth of B. pseudomallei in stomach tissue | survival of intracellular Bt [7]: decrease in survival of intracellular bacteria | NO production (nitrite) (NO [8]): higher production of NO; also recorded: increase in nitrite | Arg2 expression (Arg2 [9]): reduction in Arg2 expression | lung PGE-2 ([10]; previously documented pharmacological efficacy): reducing lung PGE-2 | associated toxicity ([10]; previously documented): without any associated toxicity | Bps intracellular survival (B. pseudomallei [11]): reduction in Bps survival; also recorded: enhanced intracellular killing of B. pseudomallei | iNOS expression (iNOS [12]): two-fold increase in iNOS expression | Arg2 expression in lungs (Western blot, densitometry) (Arg2 [13]): decreases | iNOS mRNA expression (iNOS [14]): no differences in iNOS mRNA expression; also recorded: did not observe any apparent change in iNOS mRNA expression | PGE-2 concentration in lung tissue (PGE-2 [15]): reduce PGE-2 concentration in lung tissue | PGE-2 concentration in stomach tissue (PGE-2 [15]): reduce PGE-2 concentration in stomach tissue | NO production (NO [16]): higher production of NO

CCCCC[C@H](O)/C=C/[C@H]1[C@H](O)CC(=O)[C@@H]1C/C=C\CCCC(=O)O [PGE-2]
IFN-gamma production by stimulated CD4+ T-cells (CD4+ T-cells): reduces | IL-2 production by stimulated CD4+ T-cells (CD4+ T-cells): reduces | NO (nitrite) levels after adding PGE-2 (NO [8]): reduced NO levels; also recorded: reduced nitrite levels | increase in Arg2 expression (Arg2 [9]): 376 fold | iNOS mRNA expression (iNOS [14]): no differences in iNOS mRNA expression; also recorded: did not observe any apparent change in iNOS mRNA expression | NO levels after adding PGE-2 (NO [16]): reduced NO levels

N=C(NO)NCC[C@H](N)C(=O)O [nor-NOHA, nor-N^ω-hydroxy-L-arginine]
Bt intracellular survival [7]: decrease | NO (nitrite) levels (NO [8]): increase in NO levels; also recorded: increase in nitrite levels | Bps intracellular survival (B. pseudomallei [11]): decrease in B. pseudomallei intracellular survival | NO levels (NO [16]): increase in NO levels
